One assay concerns α1 receptor. Put plainly: binding to the α1 receptor. Particulars: for inhibition in binding to the α1 receptor: 1 μM.
In a further assay the test system is Male rats. The experiment in a line: anxiolytic activity: release of behavior suppressed by punishment (Vogel conflict test). It counts as in vivo. The protocol: The anxiolytic activity of selected compounds of the invention was assessed by determining their ability to release (disinhibit) behavior that had been suppressed by punishment (Vogel, J. R. et al. Psychopharmacology 1971, 21, 1). Male rats were deprived of water for 48 hours and were deprived of food for 24 hours prior to testing. After the first 24 hours of water deprivation, they were placed in the conflict chamber for a training period; wherein, they were allowed 200 unpunished licks from a bottle containing tap water. The experiment was run the next day. At the expected time of peak activity, the animals were placed in the chamber and allowed access to tap water. […] Their first lick initiates a 3-min test session. Subsequently,every 20th lick was punished by a 0.2-s shock delivered via the stainless-steel drinking-tube. Vehicle-treated control animals generally were willing to accept a median number of 3 to 8 shocks per test session. […] The Wilcoxon rank-sum test (Mann-WhitneyU-test) was used to test for an increase (p<0.05, 1-tailed) in the median number of shocks in drug-treated groups, compared to a concurrently run vehicle-treated group. The biological assay is considered to be valid if the effects of a known anxiolytic (positive control) are detected, within the same experiment. […]

The next assay addresses 5-HT2 receptor (Rattus norvegicus, UniProt P14842). Put plainly: binding to the 5-HT2 receptor. The settings on record: 1 μM.
The target of another assay is T1, 5-HT1A receptor (Rattus norvegicus, UniProt P19327).
T1 construct: P2 fraction (synaptosomal membranes) from the cerebral cortex of male, Wistar rats; from tissue; host or cells: cerebral cortex of male Wistar rats, P2 fraction (synaptosomal membranes)
T1 sequence (P19327 1-422): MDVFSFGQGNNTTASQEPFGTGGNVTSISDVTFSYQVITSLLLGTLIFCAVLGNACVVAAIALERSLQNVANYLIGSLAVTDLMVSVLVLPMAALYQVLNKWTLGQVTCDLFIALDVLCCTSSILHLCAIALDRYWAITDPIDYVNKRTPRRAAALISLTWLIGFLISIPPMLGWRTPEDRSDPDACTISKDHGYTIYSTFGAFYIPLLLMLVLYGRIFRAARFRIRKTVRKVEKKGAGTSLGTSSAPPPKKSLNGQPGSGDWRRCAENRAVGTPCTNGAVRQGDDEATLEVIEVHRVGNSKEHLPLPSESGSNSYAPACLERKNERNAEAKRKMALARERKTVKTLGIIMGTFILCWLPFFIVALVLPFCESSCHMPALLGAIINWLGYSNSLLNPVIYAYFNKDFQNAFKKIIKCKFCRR
The experiment in a line: 5-HT1A assay (competitive binding, 3H-8-hydroxy-DPAT, cerebral cortex P2 fraction). Also on record: species or system male, Wistar rats. The procedure:
The 5-HT1A assay used a P2 fraction (synaptosomal membranes) from the cerebral cortex of male, Wistar rats. The ligand ^3 H-8-hydroxy-DPAT was used in competitive binding experiments at a concentration of 3 nM, and 1 mM serotonin as a blank determinant. Incubation was in 3 mM potassium phosphate buffer for 20 min at 25° C.
The data from each assay were analyzed by calculating the percent inhibition of the binding of the tritiated ligands by given concentrations of the test compound. Ki values, where given, were obtained from the logit analysis of concentration-inhibition curves.

Assay [1] has as its target D2 receptor (Rattus norvegicus, UniProt P61169). The experiment in a line: binding to the D2 receptor. Particulars: 1 μM.
Assay [2] concerns the target D2 receptor (Homo sapiens, UniProt P14416). Particulars: background statement; cited from earlier work.
Where [3] appears, read: 3H-8-hydroxy-DPAT 3 nM, 20 min, 25° C., rat cerebral cortex P2 fraction, read-out: Ki (5HT1A).
Where [4] appears, read: 3H-8-hydroxy-DPAT 3 nM, 20 min, 25° C., rat cerebral cortex P2 fraction.

The Ki is the dissociation constant of the complex between target and ligand, obtained from inhibition or displacement. A word on the inhibition: it is the change of the read-out against control, counted positive when it falls.

Like-named read-outs stand apart in the source and are kept apart here.

Chain of 5-HT2 receptor (P14842 whole entry): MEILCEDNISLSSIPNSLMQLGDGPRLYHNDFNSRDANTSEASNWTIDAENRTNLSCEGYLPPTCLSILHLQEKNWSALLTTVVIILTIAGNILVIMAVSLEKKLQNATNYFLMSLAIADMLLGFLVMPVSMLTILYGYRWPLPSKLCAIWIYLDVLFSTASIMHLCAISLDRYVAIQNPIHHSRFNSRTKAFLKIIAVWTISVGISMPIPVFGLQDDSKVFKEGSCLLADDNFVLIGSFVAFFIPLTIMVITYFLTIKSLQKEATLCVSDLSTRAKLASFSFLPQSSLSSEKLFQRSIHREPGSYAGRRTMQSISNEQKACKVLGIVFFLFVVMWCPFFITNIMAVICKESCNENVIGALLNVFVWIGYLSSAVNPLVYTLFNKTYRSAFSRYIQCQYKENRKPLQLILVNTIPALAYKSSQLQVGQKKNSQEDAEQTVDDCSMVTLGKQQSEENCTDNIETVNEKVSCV
Chain of D2 receptor (Rattus norvegicus, UniProt P61169) (P61169 whole entry): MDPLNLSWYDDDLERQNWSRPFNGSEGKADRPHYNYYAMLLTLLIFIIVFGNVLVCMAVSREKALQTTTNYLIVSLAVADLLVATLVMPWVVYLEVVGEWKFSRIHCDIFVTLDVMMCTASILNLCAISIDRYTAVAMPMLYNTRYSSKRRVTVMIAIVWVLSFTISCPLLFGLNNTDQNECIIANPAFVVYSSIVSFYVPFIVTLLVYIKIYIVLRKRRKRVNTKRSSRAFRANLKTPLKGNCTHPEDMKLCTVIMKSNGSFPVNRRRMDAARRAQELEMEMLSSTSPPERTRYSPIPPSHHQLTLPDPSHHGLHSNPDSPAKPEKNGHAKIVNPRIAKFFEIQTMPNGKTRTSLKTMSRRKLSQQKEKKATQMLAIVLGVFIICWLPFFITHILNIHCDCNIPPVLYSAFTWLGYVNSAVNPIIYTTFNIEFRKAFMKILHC
Chain of D2 receptor (Homo sapiens, UniProt P14416) (P14416 whole entry): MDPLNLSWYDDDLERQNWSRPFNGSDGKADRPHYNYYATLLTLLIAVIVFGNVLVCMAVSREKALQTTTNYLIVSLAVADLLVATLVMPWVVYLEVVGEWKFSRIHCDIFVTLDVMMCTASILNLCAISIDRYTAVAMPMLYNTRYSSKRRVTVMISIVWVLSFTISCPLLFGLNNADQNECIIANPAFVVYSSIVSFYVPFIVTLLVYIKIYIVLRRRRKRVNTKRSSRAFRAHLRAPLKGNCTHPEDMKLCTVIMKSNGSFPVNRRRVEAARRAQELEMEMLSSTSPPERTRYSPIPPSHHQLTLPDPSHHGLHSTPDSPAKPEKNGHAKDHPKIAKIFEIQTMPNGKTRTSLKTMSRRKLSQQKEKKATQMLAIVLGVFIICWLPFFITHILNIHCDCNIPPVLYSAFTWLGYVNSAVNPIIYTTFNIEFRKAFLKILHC

Consider `Cl.Cn1cc(C(=O)CN2CCC(O)(c3ccc(Cl)cc3)CC2)cc1C(=O)c1ccccc1Cl` [Example 7, 1-[5-(2-Chlorobenzoyl)-1-methyl-1H-pyrrol-3-yl]-2-[4-(4-chlorophenyl)-4-hydroxy-1-piperidinyl]ethanone Hydrochloride], for which the “inhibition in binding to the α1 receptor” value in the assay on α1 receptor was “no inhibition”. This compound also returned a change in responding in the assay with Male rats (10 mg/kg IP) of 180%. Besides, the “inhibition in binding to the 5-HT2 receptor” value on 5-HT2 receptor is “no inhibition”. Also, affinity at 5-HT1A receptor was put at a Ki of 15 nM. Further, the “inhibition in binding to the D2 receptor” value at D2 receptor [1] is given as “no inhibition”.

For the compound `Cn1cc(C(=O)CN2CCN(c3ncccn3)CC2)cc1C(=O)c1ccc([N+](=O)[O-])cc1` [Example 5, 1-[1-Methyl-5-(4-nitrobenzoyl)-1H-pyrrol-3-yl]-2-[4-(2-pyrimidinyl)-1-piperazinyl]ethanone], the “inhibition in binding to the α1 receptor” value in the assay on α1 receptor was “no inhibition”. The compound also had a change in responding in the assay on Male rats (5 mg/kg IP) of 240%. For the same compound, the “inhibition in binding to the 5-HT2 receptor” value on 5-HT2 receptor was “no inhibition”. The Ki at 5-HT1A receptor (setting [3]) is 7.7 nM. Also, the “inhibition in binding to the D2 receptor” value at D2 receptor [1] is recorded as “no inhibition”.

Consider `Cc1c(C(=O)CCCCN2CCN(c3ncccn3)CC2)c(C)n(C)c1C(=O)c1ccc(Cl)cc1` [Example 6-6], for which, at 5-HT1A receptor (setting [3]), the Ki was 6 nM.

For `Cn1cc(C(=O)CN2CCN(c3cccc4ccccc34)CC2)cc1C(=O)c1ccc(Cl)cc1` [Example 6-5], on 5-HT1A receptor (setting [4]), the inhibition at 1 µM stood at 67%.

In the case of `Cn1cc(C(=O)CN2CCN(c3ncccn3)CC2)cc1C(=O)c1ccc(F)cc1` [Example 6-4], on 5-HT1A receptor (setting [4]), the inhibition at 1 µM amounted to 91%.

For the compound `CC(C)Oc1ccccc1N1CCN(CC(=O)c2cc(C(=O)c3ccccc3Cl)n(C)c2)CC1` [Example 6-3], at 5-HT1A receptor (setting [4]), testing at 1 µM gave an inhibition of 83%.

The compound `Cn1cc(C(=O)CN2CCN(c3ccccn3)CC2)cc1C(=O)c1ccc(Cl)cc1` [Example 6-2] registered an inhibition at 1 µM at 5-HT1A receptor (setting [4]) of 94%.

`Cc1c(C(=O)CN2CCN(c3ncccn3)CC2)c(C)n(C)c1C(=O)c1ccc(Cl)cc1` [Example 6-1]: at 5-HT1A receptor (setting [4]), testing at 1 µM gave an inhibition of 24%.

As for `Cc1ccc(N(CC2=NCCN2)c2cccc(O)c2)cc1` [phentolamine, reference compound], the Ki on 5-HT1A receptor is 59 nM.

At 5-HT1A receptor (setting [4]), `Cn1cc(C(=O)CN2CCC(c3ccccc3)CC2)cc1C(=O)c1ccc(Cl)cc1` [Example 8, 1-[5-(4-chlorobenzoyl)-1-methyl-1H-pyrrol-3-yl]-2-(4-phenylpiperidinyl)-ethanone] showed an inhibition at 1 µM of 69%.

With `COc1cccc(OC)c1OCCNCC1COc2ccccc2O1` (stereo not drawn) [WB4101, reference compound], the inhibition constant (Ki) at 5-HT1A receptor (setting [3]) was 0.32 nM.

For the compound `O=C1CC2(CCCC2)CC(=O)N1CCCCN1CCN(c2ncccn2)CC1` [buspirone], the inhibition constant Ki on α1 receptor was determined as 138 nM. In addition, the “binding to the D2 receptor” value at D2 receptor [2] is reported as “binds to the D2 receptor”.

(Values after patent publication US5418236A, “Anxiolytic aroyl piperidinyl and piperazinylacyl pyrroles” (Ortho Pharmaceutical Corporation, priority 1993, dated 1995).)
